{"source": "ChEMBL document CHEMBL1201862", "about": "“PubChem BioAssay data set” (2004)", "key": {"[1]": {"target": "Beta-2 adrenergic receptor (Homo sapiens, UniProt P07550)", "sequence (P07550 whole entry)": "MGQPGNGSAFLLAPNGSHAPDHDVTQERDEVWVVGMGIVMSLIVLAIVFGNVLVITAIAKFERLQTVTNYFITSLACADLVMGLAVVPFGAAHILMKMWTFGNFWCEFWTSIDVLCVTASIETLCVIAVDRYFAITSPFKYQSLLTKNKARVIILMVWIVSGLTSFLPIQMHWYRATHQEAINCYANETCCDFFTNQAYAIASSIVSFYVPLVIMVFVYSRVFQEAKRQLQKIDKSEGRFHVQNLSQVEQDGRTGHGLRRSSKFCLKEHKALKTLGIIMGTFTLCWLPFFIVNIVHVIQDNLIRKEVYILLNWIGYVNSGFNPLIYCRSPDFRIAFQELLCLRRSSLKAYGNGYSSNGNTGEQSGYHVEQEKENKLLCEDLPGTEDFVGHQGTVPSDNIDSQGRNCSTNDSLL", "assay": "beta2AR agonists driving receptor internalization, dose response, cell-based, FAP fluorogen, flow cytometry, cherry pick 1 (AID 588763)", "type": "functional"}, "CAAX prenyl protease 2 [2]": {"target": "T1, CAAX prenyl protease 2 (Saccharomyces cerevisiae S288c, UniProt Q03530)", "T1 sequence (Q03530 whole entry)": "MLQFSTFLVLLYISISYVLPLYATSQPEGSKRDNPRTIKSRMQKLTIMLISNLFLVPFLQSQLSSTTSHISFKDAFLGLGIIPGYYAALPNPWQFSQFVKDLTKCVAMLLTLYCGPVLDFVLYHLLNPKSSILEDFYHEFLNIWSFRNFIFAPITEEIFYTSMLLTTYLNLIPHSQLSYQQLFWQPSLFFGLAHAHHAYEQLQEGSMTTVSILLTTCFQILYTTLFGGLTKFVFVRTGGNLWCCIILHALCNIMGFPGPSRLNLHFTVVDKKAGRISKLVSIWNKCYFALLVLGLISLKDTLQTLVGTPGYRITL", "assay": "yeast Rce1 CaaX protease inhibitors, dose response, biochemical, plate reader, dry powder retest (AID 588851)"}, "CAAX prenyl protease 2 [3]": {"target": "T1, CAAX prenyl protease 2", "type": "biochemical"}, "DNA topoisomerase": {"target": "DNA topoisomerase (Yersinia pestis, UniProt A0A2S9PM60)", "sequence (A0A2S9PM60 whole entry)": "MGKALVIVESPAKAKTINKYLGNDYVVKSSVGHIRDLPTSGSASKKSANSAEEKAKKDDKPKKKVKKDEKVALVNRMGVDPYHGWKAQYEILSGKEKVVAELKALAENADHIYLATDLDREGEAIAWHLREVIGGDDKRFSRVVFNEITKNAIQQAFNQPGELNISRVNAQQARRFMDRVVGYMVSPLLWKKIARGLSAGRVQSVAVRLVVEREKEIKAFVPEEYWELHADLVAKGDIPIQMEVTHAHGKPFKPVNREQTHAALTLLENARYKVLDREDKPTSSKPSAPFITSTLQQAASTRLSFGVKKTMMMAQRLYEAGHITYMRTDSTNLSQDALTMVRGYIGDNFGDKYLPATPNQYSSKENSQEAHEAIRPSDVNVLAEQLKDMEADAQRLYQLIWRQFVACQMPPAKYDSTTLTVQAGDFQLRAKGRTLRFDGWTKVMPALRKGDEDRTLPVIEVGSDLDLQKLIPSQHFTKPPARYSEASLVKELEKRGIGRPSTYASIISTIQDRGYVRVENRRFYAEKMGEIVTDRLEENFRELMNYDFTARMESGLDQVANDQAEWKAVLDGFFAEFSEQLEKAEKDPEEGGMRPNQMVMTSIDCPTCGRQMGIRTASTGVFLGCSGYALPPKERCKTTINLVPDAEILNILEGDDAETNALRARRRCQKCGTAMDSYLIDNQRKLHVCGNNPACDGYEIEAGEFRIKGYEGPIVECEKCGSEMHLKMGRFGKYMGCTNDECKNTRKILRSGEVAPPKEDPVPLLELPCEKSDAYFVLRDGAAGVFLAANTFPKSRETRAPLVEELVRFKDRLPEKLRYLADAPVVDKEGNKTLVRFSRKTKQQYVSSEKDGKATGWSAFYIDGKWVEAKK", "assay": "Y. pestis Topo-I inhibitors, cleavage product readout, dose response, biochemical, cherry-pick (AID 588525)"}, "BJ [4]": {"test_system": "BJ", "assay": "cytotoxicity toward BJ-TERT-LT-ST fibroblasts, dose response, cell-based, RAS-independent, luminescence (AID 1935);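 also: BJ fibroblasts immortalized with TERT plus LT and ST oncogenes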", "type": "functional", "conditions": "Homo sapiens"}, "[5]": {"assay": "inhibitors of SNCA 5'UTR-driven reporter translation, confirmation, H4 neuroglioma cells, luminescence (AID 1988)", "type": "functional, cell-based"}, "[6]": {"target": "Sphingosine 1-phosphate receptor 2 (Homo sapiens, UniProt O95136)", "sequence (O95136 whole entry)": "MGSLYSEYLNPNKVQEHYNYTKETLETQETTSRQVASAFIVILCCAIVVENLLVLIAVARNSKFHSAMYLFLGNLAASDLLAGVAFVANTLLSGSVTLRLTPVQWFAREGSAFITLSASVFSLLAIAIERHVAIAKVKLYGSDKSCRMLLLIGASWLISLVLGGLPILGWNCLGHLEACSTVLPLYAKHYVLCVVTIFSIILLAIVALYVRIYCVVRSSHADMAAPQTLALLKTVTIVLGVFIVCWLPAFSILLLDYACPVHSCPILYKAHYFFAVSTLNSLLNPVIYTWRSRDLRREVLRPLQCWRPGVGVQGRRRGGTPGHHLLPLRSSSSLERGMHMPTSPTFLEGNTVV", "assay": "Dose Response Cell Based Assay for Antagonists of the S1P2 Receptor. [Related pubchem assays: 856, 736 ]", "type": "functional"}, "[7]": {"assay": "Luminescence-based dose response cell-based high throughput screening assay for cytotoxic compounds using the IEC-6 intestinal epithelial cell line. [Related pubchem assays: 1858 (Summary AID.), 1825 (Counterscreen.), 1907 (Confirmation screen.)]", "type": "functional"}, "[8]": {"target": "T2, Neuropeptide Y receptor type 1 (Homo sapiens, UniProt P25929)", "T2 sequence (P25929 whole entry)": "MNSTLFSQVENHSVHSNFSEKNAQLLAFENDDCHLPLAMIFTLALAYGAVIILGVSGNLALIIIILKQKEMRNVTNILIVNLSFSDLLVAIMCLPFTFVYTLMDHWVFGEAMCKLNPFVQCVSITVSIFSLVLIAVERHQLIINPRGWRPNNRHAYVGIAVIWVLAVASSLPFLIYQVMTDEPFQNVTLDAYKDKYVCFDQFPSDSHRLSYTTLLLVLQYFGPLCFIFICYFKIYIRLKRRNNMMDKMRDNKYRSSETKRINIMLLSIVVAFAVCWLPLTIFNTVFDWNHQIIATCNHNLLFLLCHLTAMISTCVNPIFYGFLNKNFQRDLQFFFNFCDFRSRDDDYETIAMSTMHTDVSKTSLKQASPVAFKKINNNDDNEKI", "assay": "Fluorescence-based counterscreen for agonists of NPY-Y2: cell-based high-throughput dose response assay for agonists of NPY-Y1.", "type": "functional"}, "HEK293 [9]": {"test_system": "HEK293", "assay": "Fluorescence-based counterscreen for potentiators or agonists of NPY-Y2: cell-based high-throughput dose response assay to identify inhibitors of cyclic nucleotide gated ion channel (CNGC) activity. In this assay, the parental HEK293 cell line transfected with a cyclic-nucleotide gated ion channel (CNGC)-based cAMP sensor is used to measure inhibition of isoproterenol-induced CNGC activity by test compound.", "type": "functional", "conditions": "Homo sapiens"}, "HEK293 [10]": {"test_system": "HEK293", "assay": "inhibitors of LMP1-driven NF-kB reporter, dose response, cell-based, HEK293, luciferase, cherry-pick (AID 588343)", "type": "functional", "conditions": "Homo sapiens"}, "[11]": {"assay": "HEK293T cytotoxicity, dose response, cytotoxicity control for miR-122 modulator project, cell-based, activator set, cherry-pick (AID 720690);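 also: HEK293T human cells scored for general mammalian cytotoxicity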", "type": "functional"}, "BJ [12]": {"test_system": "BJ", "assay": "cytotoxicity toward Ras-transformed BJeLR fibroblasts, dose response, cell-based, alamar blue fluorescence, cherrypicked samples (AID 2631)", "type": "functional", "conditions": "Homo sapiens"}, "[13]": {"target": "T3, Neuropeptide Y receptor type 2 (Homo sapiens, UniProt P49146)", "T3 sequence (P49146 whole entry)": "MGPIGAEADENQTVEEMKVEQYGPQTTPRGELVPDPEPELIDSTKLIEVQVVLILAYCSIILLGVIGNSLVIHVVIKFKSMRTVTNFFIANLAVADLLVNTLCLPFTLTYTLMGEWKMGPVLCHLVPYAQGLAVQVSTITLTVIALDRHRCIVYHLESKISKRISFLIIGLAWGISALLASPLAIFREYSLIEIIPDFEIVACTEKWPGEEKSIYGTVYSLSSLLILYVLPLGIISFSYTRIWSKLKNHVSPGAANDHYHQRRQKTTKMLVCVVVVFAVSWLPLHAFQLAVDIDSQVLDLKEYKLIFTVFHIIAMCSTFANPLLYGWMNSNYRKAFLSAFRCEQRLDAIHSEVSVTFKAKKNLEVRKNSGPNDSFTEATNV", "assay": "Fluorescence-based cell-based high-throughput dose response assay for agonists of NPY-Y2. [Related pubchem assays: 1703 (Screening assay (CNGC inhibitors).), 1359 (Screening assay (NPY-Y2 potentiators or agonists).), 1304 (Screening assay (NPY-Y1 potentiators or agonists).), 1710 (Screening assay (NPY-Y2 agonists).), 1791 (Summary AID.)]", "type": "functional"}, "[14]": {"assay": "inhibitors of firefly luciferase expression or activity, dose response, H4 neuroglioma cells, luminescence (AID 1990)", "type": "functional, cell-based"}, "[15]": {"assay": "Luminescence Cell-Based Dose Response HTS to Identify Inhibitors of 5'UTR Stem-Loop Driven Prion Protein mRNA Translation in H4 Neuroglioblastoma Cells. [Related pubchem assays: 1827 (Project Summary), 1813 (Primary HTS)]", "type": "functional"}, "[16]": {"assay": "miR-122 activators in hepatoma reporter cells, dose response, cell-based, Huh7 psiCHECK-miR122, Renilla luciferase, cherry-picked (AID 651956);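 also: huh7 hepatoma cells stably carrying a psiCHECK-2 miR-122 sensor plasmid; renilla luciferase signal reporting endogenous miR-122 activity after 48 h compound exposure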", "type": "functional"}, "[17]": {"target": "Latent membrane protein 1 (Human herpesvirus 4 (strain B95-8), UniProt P03230)", "sequence (P03230 whole entry)": "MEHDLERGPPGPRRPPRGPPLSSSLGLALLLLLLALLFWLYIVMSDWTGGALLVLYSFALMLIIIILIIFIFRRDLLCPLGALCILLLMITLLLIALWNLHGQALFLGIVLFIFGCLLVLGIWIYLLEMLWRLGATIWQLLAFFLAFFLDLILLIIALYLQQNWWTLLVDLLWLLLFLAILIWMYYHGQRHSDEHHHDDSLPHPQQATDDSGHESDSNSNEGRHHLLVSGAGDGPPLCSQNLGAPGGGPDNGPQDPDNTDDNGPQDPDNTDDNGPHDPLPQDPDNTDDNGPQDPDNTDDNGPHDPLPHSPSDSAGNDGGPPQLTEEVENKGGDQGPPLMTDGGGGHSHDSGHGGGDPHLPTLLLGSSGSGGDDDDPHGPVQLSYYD", "assay": "TES1-eGFP NF-kB reporter inhibition versus Tet-On dsRED, dose response, selectivity assay for LMP1 NF-kB inhibitor project, imaging, HEK293T, dual-color eGFP/dsRED, cherry-picks (AID 588398)", "type": "functional, cell-based"}, "[18]": {"assay": "cytotoxicity toward DRD oncogenic fibroblasts, dose response, cell-based, non-viral oncogenic, luminescence (AID 1934)", "type": "functional", "conditions": "Homo sapiens"}, "BJ [19]": {"test_system": "BJ", "assay": "cytotoxicity toward BJ-TERT fibroblasts, dose response, cell-based, RAS-independent, luminescence (AID 1933)", "type": "functional", "conditions": "Homo sapiens"}, "[20]": {"assay": "cytotoxicity in HEK-293T cells, dose response, cytotoxicity control for TCR NF-kB inhibitor project, luminescence, T-cell screen hits (AID 489026);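 also: cells exposed to compound about 14 hours before the viability readout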", "type": "functional, cell-based"}, "[21]": {"assay": "HEK293T cytotoxicity, dose response, cytotoxicity control for miR-122 modulator project, cell-based, inhibitor set, cherry-pick, set 2 (AID 720697)", "type": "functional"}, "INS1": {"test_system": "INS1", "assay": "beta cell apoptosis inhibitors, cytokine rescue, dose response, luminescence, retest (AID 449756);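 also: cell death triggered by IL-1 beta plus TNF-alpha plus IFN-gamma mixture; protective hits raise ATP signal compared with cytokine alone wells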", "type": "functional, cell-based", "conditions": "Rattus norvegicus"}, "BJ [22]": {"test_system": "BJ", "assay": "cells", "type": "functional, cell-based", "conditions": "Homo sapiens"}, "[23]": {"target": "Dual specificity protein kinase CLK1 (Homo sapiens, UniProt P49759)", "sequence (P49759 whole entry)": "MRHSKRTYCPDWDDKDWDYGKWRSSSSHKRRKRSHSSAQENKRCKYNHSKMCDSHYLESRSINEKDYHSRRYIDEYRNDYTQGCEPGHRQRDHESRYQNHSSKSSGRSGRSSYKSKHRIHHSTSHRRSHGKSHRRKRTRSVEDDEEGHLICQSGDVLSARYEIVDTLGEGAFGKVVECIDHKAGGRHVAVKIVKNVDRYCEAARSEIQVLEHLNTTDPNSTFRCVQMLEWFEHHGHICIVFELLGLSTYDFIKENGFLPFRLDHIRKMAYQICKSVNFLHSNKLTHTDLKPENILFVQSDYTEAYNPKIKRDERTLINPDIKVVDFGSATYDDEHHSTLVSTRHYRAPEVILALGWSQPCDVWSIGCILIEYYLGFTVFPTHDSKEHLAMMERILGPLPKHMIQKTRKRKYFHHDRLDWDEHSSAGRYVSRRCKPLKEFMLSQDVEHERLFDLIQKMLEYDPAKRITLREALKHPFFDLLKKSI", "assay": "CLK1 kinase inhibitors, off-target check, dose response, selectivity assay for Dyrk1A inhibitor project, biochemical, cherry-picked samples (AID 588811)"}, "[24]": {"target": "Cyclin-dependent kinase 2 (Homo sapiens, UniProt P24941)", "assay": "CDK2 kinase inhibitors, off-target check, dose response, selectivity assay for Dyrk1A inhibitor project, biochemical, cherry-picked samples (AID 602127)"}}, "note": "Calls of active or inactive are those of the source."}
{"compound": "CN(C)c1ccc(-c2noc(C3CCN(S(=O)(=O)c4cccc(Cl)c4)CC3)n2)cc1", "values": [{"measurement": "EC50", "setting": "[1]", "value": "1230 nM (active)"}]}
{"compound": "CN(C(=O)COC(=O)c1cn(-c2ccccc2)nc1-c1ccccc1)C1CCS(=O)(=O)C1", "note": "(stereo unspecified)", "values": [{"measurement": "AC50", "setting": "CAAX prenyl protease 2 [2]", "value": "25100 nM (active)"}, {"measurement": "AC50", "setting": "CAAX prenyl protease 2 [3]", "value": "679 nM (active)"}]}
{"compound": "Cc1ccc(SCc2cc(O)nc(Nc3nc(C)c4ccc(C)cc4n3)n2)cc1", "values": [{"measurement": "AC50", "setting": "DNA topoisomerase", "value": "2960 nM (active)"}]}
{"compound": "O=C(NC(Nc1nc2ccc([N+](=O)[O-])cc2s1)(C(F)(F)F)C(F)(F)F)c1ccccc1", "values": [{"measurement": "EC50", "setting": "BJ [4]", "value": "2850 nM (inconclusive)"}, {"measurement": "EC50", "setting": "[5]", "value": "449 nM (active)"}, {"measurement": "IC50", "setting": "[6]", "value": "682 nM (active)"}, {"measurement": "IC50", "setting": "[7]", "value": "1030 nM (active)"}, {"measurement": "EC50", "setting": "[8]", "value": "35300 nM (not active)"}, {"measurement": "EC50", "setting": "HEK293 [9]", "value": "> 35400 nM (not active)"}, {"measurement": "AC50", "setting": "HEK293 [10]", "value": "208 nM (active)"}, {"measurement": "AC50", "setting": "[11]", "value": "546 nM (active)"}, {"measurement": "EC50", "setting": "BJ [12]", "value": "727 nM (active)"}, {"measurement": "EC50", "setting": "[13]", "value": "31900 nM (not active)"}, {"measurement": "EC50", "setting": "[14]", "value": "394 nM (active)"}, {"measurement": "EC50", "setting": "[15]", "value": "7500 nM (active)"}, {"measurement": "AC50", "setting": "[16]", "value": "1410 nM (active)"}, {"measurement": "AC50", "setting": "[17]", "value": "816 nM (active)"}, {"measurement": "EC50", "setting": "[18]", "value": "1660 nM (active)"}, {"measurement": "EC50", "setting": "BJ [19]", "value": "1410 nM (active)"}, {"measurement": "IC50", "setting": "[20]", "value": "> 80000 nM (inactive)"}, {"measurement": "AC50", "setting": "[21]", "value": "< 195 nM (active)"}, {"measurement": "AC50", "setting": "INS1", "value": "298 nM (active)"}, {"measurement": "EC50", "setting": "BJ [22]", "value": "1340 nM (active)"}]}
{"compound": "Cc1ccsc1CN(C)c1ncnc2ccc(-c3ccoc3)cc12", "values": [{"measurement": "AC50", "setting": "[23]", "value": "13.8 nM (active)"}, {"measurement": "AC50", "setting": "[24]", "value": "7770 nM (active)"}]}
